The species entered for data set [1] is Ovis aries. In words: Inhibition of sheep brain dynamin 1 at 100 uM by malachite green GTPase assay.
For a further data set, the target named is T1, Dynamin-1 (Rattus norvegicus, UniProt P21575).
T1 sequence (P21575 whole entry): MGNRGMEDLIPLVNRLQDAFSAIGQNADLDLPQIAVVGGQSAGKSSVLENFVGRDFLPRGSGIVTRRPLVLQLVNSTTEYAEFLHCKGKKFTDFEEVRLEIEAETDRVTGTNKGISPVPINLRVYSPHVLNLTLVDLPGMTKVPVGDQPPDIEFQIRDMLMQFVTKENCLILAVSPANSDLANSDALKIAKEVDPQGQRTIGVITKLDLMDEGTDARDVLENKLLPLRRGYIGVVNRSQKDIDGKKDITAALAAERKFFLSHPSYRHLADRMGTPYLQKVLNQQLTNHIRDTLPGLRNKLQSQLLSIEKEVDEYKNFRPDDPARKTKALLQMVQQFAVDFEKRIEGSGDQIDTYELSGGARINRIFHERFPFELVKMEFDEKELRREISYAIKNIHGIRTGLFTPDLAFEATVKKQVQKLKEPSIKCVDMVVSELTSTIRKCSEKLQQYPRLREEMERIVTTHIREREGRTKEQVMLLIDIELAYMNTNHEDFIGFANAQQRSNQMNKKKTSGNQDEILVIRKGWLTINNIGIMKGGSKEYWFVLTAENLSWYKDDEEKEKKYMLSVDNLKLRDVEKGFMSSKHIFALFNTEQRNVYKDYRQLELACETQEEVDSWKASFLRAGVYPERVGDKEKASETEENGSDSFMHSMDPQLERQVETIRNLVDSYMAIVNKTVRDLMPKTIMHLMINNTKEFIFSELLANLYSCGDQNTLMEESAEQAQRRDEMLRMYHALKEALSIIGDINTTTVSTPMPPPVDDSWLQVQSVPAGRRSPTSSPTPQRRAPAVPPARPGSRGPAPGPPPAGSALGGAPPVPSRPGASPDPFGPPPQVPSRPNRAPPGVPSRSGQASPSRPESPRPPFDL
The data set is described as follows: Inhibition of dynamin 1-mediated synaptic vesicle endocytosis in Sprague-Dawley rat synaptosomes assessed as uptake of FM 4-64 dye after 30 mins by automated acquisition and analysis system. The format is subcellular, Brain.

Data set [2] can be described thus: Inhibition of sheep brain dynamin 1 by malachite green GTPase assay. Also noted: species or system Ovis aries.
The next data set has as its system U2OS. The data set is described as follows: Cytotoxicity against human U2OS cells assessed as change in cell morphology after 30 mins. In kind it is cell-based. The settings on record: 0.5 h.
The species entered for data set [3] is Ovis aries. The data set is described as follows: Inhibition of sheep brain dynamin 1 at 300 uM by malachite green GTPase assay.

The source made the active and inactive calls. No cut-off for these calls is given here.

As for `N=c1oc2c(O)cccc2cc1C(=O)NCCCCNC(=O)c1cc2cccc(O)c2oc1=N`, in the data set filed under Ovis aries [1], the inhibition (as a rule, the drop in the measured response relative to a control, in per cent) was less than 50%.

For `N=c1oc2cc(O)ccc2cc1C(=O)NCCCNC(=O)c1cc2ccc(O)cc2oc1=N`, the values for the IC50 (at Dynamin-1 (read-out: IC50); in data set [2]) were 66.1 µM and 17.3 µM, respectively.

With `N=c1oc2cc(O)ccc2cc1C(=O)NCCCCCCNC(=O)c1cc2ccc(O)cc2oc1=N`, the inhibition in the data set listed under Ovis aries [1] is less than 50%.

Take `N=c1oc2cc(O)c(O)cc2cc1C(=O)NCCCNC(=O)c1cc2cc(O)c(O)cc2oc1=N`: in the data set with U2OS, the Activity entry is “Non-toxic”. Also, the IC50 (commonly the concentration needed to halve the response being measured) on Dynamin-1 (read-out: IC50) was 40.4 µM; in data set [2], 0.26 µM.

In data set [2], `N=c1oc2c(O)c(O)ccc2cc1C(=O)NCCCCCNC(=O)c1cc2ccc(O)c(O)c2oc1=N` registered a half-inhibitory concentration (IC50) of 19 µM.

Turning to `N#C/C(=C\c1ccc(O)c(O)c1)C(=O)NCCCNC(=O)/C(C#N)=C/c1ccc(O)c(O)c1`, half-maximal inhibition in data set [2] (IC50) required 1.7 µM.

`N=c1oc2cc(O)c(O)cc2cc1C(=O)NCCNC(=O)c1cc2cc(O)c(O)cc2oc1=N` came in with a half-inhibitory concentration (IC50) in data set [2] of 6 µM.

`N=c1oc2ccccc2cc1C(=O)NCCCCNC(=O)c1cc2ccccc2oc1=N` registered an IC50 in data set [2] greater than 300 µM. The compound further showed an inhibition in the data set filed under Ovis aries [1] of less than 50%.

Compound `N=c1oc2ccccc2cc1C(=O)NCCCCCCNC(=O)c1cc2ccccc2oc1=N` had an IC50 in data set [2] greater than 300 µM. In the data set listed under Ovis aries [1], this compound had an inhibition of less than 50%.

Regarding `N=c1oc2c(O)c(O)ccc2cc1C(=O)NCCCCCCNC(=O)c1cc2ccc(O)c(O)c2oc1=N`, the IC50 in data set [2] stood at 70 µM.

In data set [2], `N#C/C(=C\c1ccc(C2(C(F)(F)F)N=N2)cc1)C(=O)NCCCNC(=O)/C(C#N)=C/c1ccc(O)c(O)c1` had an IC50 of 36 µM.

Compound `N=c1oc2cc(O)ccc2cc1C(=O)NCCCCNC(=O)c1cc2ccc(O)cc2oc1=N` returned an inhibition in the data set filed under Ovis aries [1] of less than 50%.

For `N=c1oc2c(O)c(O)ccc2cc1C(=O)NCCCCNC(=O)c1cc2ccc(O)c(O)c2oc1=N`, the midpoint of inhibition in data set [2], the IC50, lay at 4.3 µM.

In turn, `N=c1oc2ccccc2cc1C(=O)NCCNC(=O)c1cc2ccccc2oc1=N` yielded an IC50 in data set [2] greater than 300 µM. Besides, in the data set filed under Ovis aries [1], the inhibition is less than 50%.

In turn, `N=c1oc2c(O)cccc2cc1C(=O)NCCNC(=O)c1cc2cccc(O)c2oc1=N` returned an inhibition in the data set filed under Ovis aries [1] of less than 50%.

Consider `N=c1oc2cc(O)c(O)cc2cc1C(=O)NCCCCCCNC(=O)c1cc2cc(O)c(O)cc2oc1=N`, for which half-maximal inhibition in data set [2] (IC50) was put at 82 µM.

`N=c1oc2c(O)cccc2cc1C(=O)NCCCCCCNC(=O)c1cc2cccc(O)c2oc1=N` gave an inhibition in the data set filed under Ovis aries [1] of less than 50%.

Compound `N#C/C(=C\c1ccc(N=[N+]=[N-])cc1)C(=O)NCCCNC(=O)/C(C#N)=C/c1ccc(O)c(O)c1` came in with an IC50 in data set [2] of 6.4 µM.

In turn, `N=c1oc2cc(O)ccc2cc1C(=O)NCCCCCNC(=O)c1cc2ccc(O)cc2oc1=N` came in with an inhibition in the data set listed under Ovis aries [1] of less than 50%.

As to `N=c1oc2cc(O)c(O)cc2cc1C(=O)NCCCCCNC(=O)c1cc2cc(O)c(O)cc2oc1=N`, inhibition in data set [2] was half-maximal at 17 µM (IC50).

The compound `N=c1oc2c(O)cccc2cc1C(=O)NCCCCCNC(=O)c1cc2cccc(O)c2oc1=N` gave an inhibition in the data set listed under Ovis aries [1] of less than 50%.

On to `N#C/C(=C\c1ccccc1)C(=O)NCCCNC(=O)/C(C#N)=C/c1ccc(O)c(O)c1`, for which it took 146 µM to reach half-maximal inhibition in data set [2] (IC50).

In the case of `N=c1oc2c(O)c(O)ccc2cc1C(=O)NCCCNC(=O)c1cc2ccc(O)c(O)c2oc1=N`, the Activity entry in the data set on U2OS was “Non-toxic”. For the same compound, the IC50 worked out at 99.5 µM on Dynamin-1 (read-out: IC50) and 0.45 µM in data set [2].

Turning to `N=c1oc2c(O)cccc2cc1C(=O)NCCCNC(=O)c1cc2cccc(O)c2oc1=N`, the Activity entry in the data set on U2OS is “Non-toxic”. Further, the concentration for half-maximal inhibition (IC50) entry was “Not Active” on Dynamin-1 and 36.6 µM in data set [2].

In turn, `N=c1oc2ccccc2cc1C(=O)NCCCNC(=O)c1cc2ccccc2oc1=N` displayed an IC50 in data set [2] greater than 300 µM. Also, the inhibition in the data set filed under Ovis aries [1] is less than 50%.

In turn, `N=c1oc2cc(O)c(O)cc2cc1C(=O)NCCCCNC(=O)c1cc2cc(O)c(O)cc2oc1=N` displayed an IC50 in data set [2] of 3.2 µM.

Consider `N=c1oc2c(O)c(O)ccc2cc1C(=O)NCCNC(=O)c1cc2ccc(O)c(O)c2oc1=N`, for which the 50% inhibitory concentration (IC50) entry at Dynamin-1 was “Not Active”; in data set [2], 0.33 µM.

Consider `N#C/C(=C\c1ccc(O)cc1)C(=O)NCCCNC(=O)/C(C#N)=C/c1ccc(O)c(O)c1`, for which the IC50 in data set [2] came out at 51 µM.

Regarding `N=c1oc2ccccc2cc1C(=O)NCCCCCNC(=O)c1cc2ccccc2oc1=N`, the IC50 in data set [2] was greater than 300 µM. The compound also registered an inhibition in the data set listed under Ovis aries [1] of less than 50%.

In the case of `N=c1oc2cc(O)ccc2cc1C(=O)NCCNC(=O)c1cc2ccc(O)cc2oc1=N`, the inhibition result in the data set filed under Ovis aries [3] was “inactive”. This compound had an IC50 in data set [2] of 100 µM.

As to `COc1ccc(/C=C(\C#N)C(=O)NCCCNC(=O)/C(C#N)=C/c2ccc(O)c(O)c2)cc1OC`, half-maximal inhibition in data set [2] (IC50) required 44 µM.

The values above are taken from ChEMBL document CHEMBL1157798, “Iminochromene inhibitors of dynamins I and II GTPase activity and endocytosis” (J Med Chem, 2010).
